Assay results as given in patent publication US20260116921A1, “PEPTIDE INHIBITORS OF INTERLEUKIN-23 RECEPTOR AND THEIR USE TO TREAT INFLAMMATORY DISEASES” (priority 2018, published 2026).
pIC50: −log10 of the molar value. Where two headings read alike, the source gives them in different places. Numbered stars: 1 amine (or outer) side, 2 acyl side, 3 side chain; on linkers, the order of the positions; unused ones are H or OH. Bridge positions count the residues as written; N and C are the ends. Square brackets hold non-standard residues; d marks the D form. Peptide text beside a SMILES is read from it. X4 = CC(C)c1cccc2c(C[C@H](N[*:1])C(=O)[*:2])c[nH]c12; Trp(7-Me) = Cc1cccc2c(C[C@H](N)C(=O)O)c[nH]c12; 2Nal = N[C@@H](Cc1ccc2ccccc2c1)C(=O)O; AEF = NCCOc1ccc(C[C@H](N)C(=O)O)cc1; Cit = NC(=O)NCCC[C@H](N)C(=O)O; Pen = CC(C)(S)[C@H](N)C(=O)O; αMeK = C[C@](N)(CCCCN)C(=O)O; Aib = CC(C)(N)C(=O)O; βAla = NCCC(=O)O

Assays:
in vitro [1] = details: cynomolgus monkey, 20% fecal homogenate (supernatant), anaerobic, pH 6.8
in vitro [2] = details: human, 20% fecal homogenate (supernatant), anaerobic, pH 6.8
Experimental: Fecal homogenate (20%) was prepared by adding 4 mL of growth medium (1 liter contains 2 g peptone water powder, 2 g yeast extract, 0.1 g NaCl, 0.04 g KH2PO4, 0.01 g CaCl2·6H2O, 0.01 g MgSO4·7H2O, 2 mL Tween 80, 0.5 g bile salts, 0.5 g L-cysteine HCl, 2 g NaHCO3, and 10 μL Vitamin K, pH adjusted to 6.8, and sterilized by filtration through a 0.22 μm filter) to every gram of feces (pooled freshly collected human or cynomolgus monkey feces). The suspension was vortexed to break up large clumps, and homogenized using a bead mill homogenizer. Centrifuged the homogenate at 2800×g for 15 min. The supernatant is taken out and used for incubations. DMSO stocks (10 mM) were first prepared for the test compounds. Incubations were performed in an anaerobic chamber conditioned at 37° C. Aliquots of the DMSO solutions were dosed into 1.0 mL aliquots of 20% fecal homogenate, which are pre-warmed to 37° C. The final test compound concentration was 20 μM. At each timepoint (0, 20 min, 1, 3, 6, or 24 hours), 100 μL aliquot of each incubation mixture is taken out and added to separate tubes containing 300 μL of 50% acetonitrile/50% methanol and an internal standard to terminate the reaction. Samples were taken out of the anaerobic chamber and stored at 4° C. until the end of the experiment. After the final timepoint is sampled, the tubes were mixed and then centrifuged at 3,000 rpm for 10 minutes. Aliquots of the supernatant were removed, diluted 1:1 into distilled water containing 0.1% formic acid, and analyzed by LC/MS/MS. Percent remaining at each timepoint was calculated based on the peak area response ratio of test to compound to internal standard. Time 0 was set to 100%, and all later timepoints were calculated relative to time 0. Half-lives were calculated by fitting to a first-order exponential decay equation using Graphpad or Excel.

IL-23R = molecular target: T1, IL-23R (Homo sapiens, UniProt Q5VWK5); assay: DB cells IL23R pSTAT3 cell assay (pStat3 HTRF); assay type: cell-based
T1 sequence (Q5VWK5 24-629): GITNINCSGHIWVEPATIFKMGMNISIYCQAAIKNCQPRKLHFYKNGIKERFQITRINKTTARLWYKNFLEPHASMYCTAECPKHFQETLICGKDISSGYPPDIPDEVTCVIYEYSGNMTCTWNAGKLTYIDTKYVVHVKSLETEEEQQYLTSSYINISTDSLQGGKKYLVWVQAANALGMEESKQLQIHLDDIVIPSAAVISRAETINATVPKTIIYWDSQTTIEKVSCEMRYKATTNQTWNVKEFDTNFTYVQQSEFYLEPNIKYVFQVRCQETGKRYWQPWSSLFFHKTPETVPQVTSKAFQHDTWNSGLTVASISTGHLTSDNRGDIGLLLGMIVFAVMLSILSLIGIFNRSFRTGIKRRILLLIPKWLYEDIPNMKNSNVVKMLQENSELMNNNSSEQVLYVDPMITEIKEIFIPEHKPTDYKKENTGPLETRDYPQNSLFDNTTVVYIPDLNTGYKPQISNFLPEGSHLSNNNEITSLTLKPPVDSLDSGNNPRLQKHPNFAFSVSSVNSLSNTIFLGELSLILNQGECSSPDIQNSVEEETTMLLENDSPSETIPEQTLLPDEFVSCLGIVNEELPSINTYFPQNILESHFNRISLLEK
Procedure, shortened: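 DB cells (5×10E5/well, RPMI-1640 + 10% FBS) stimulated with 0.5 nM final IL-23 plus serially diluted test peptides for 30 min at 37 °C, 5% CO2. Phospho-STAT3 (Tyr705) in lysates measured by HTRF using a two-plate protocol.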

in vitro [3] = details: both, SD, rat, plasma (EDTA)
Experimental: Peptides of interest (20 μM) were incubated with pre-warmed rat plasma (SD rat, mixed gender pooled, EDTA, filtered through 0.22 μm, BioreclamationIVT) at 37° C. […] Quenched samples were stored at 4° C. until the end of the experiment and centrifuged at 4,000 rpm for 10 minutes. The supernatant were diluted 1:1 with deionized water and analyzed using LC-MS. Percentage remaining at each time point was calculated based on the peak area ratio (analyte over internal standard) relative to the initial level at time zero. Half-lives were calculated by fitting to a first-order exponential decay equation using GraphPad.

[4] = Table E3, DB cells, IL-23 0.5 nM, 30 minutes at 37° C., read-out: pStat3 HTRF (IC50)

Structure (SMILES)	half-life at 20 μM (in vitro [1])	half-life at 20 μM (in vitro [2])	pIC50 (IL-23R; [4])	half-life at 20 μM (in vitro [3])	pIC50 (IL-23R)
CC(=O)N[C@@H]1C(=O)N[C@@H](CC(N)=O)C(=O)N[C@@H]([C@@H](C)O)C(=O)N[C@@H](Cc2c[nH]c3c(C)cccc23)C(=O)N[C@@H](CCC(N)=O)C(=O)N[C@H](C(=O)N[C@@H](Cc2ccc(OCCN)cc2)C(=O)N[C@@H](Cc2ccc3ccccc3c2)C(=O)N[C@@](C)(CC(C)C)C(=O)NCC(=O)N2CCC[C@@H]2C(=O)NCCC(N)=O)C(C)(C)SSC1(C)C [compound 220]	21 h	> 24 h	< 7.00	1 h	–
CC(=O)NCCCC[C@H](NC(=O)[C@](C)(CCCCN)NC(=O)[C@H](Cc1ccc2ccccc2c1)NC(=O)[C@H](Cc1ccc(OCCN)cc1)NC(=O)[C@H]1NC(=O)[C@H](CCC(N)=O)NC(=O)[C@H](Cc2c[nH]c3cc(Cl)ccc23)NC(=O)[C@H]([C@@H](C)O)NC(=O)[C@H](CC(N)=O)NC(=O)[C@@H](NC(C)=O)C(C)(C)SSC1(C)C)C(=O)N[C@@H](CC(N)=O)C(=O)NCCC(N)=O [compound 228]	13 h	> 24 h	7.00 to 8.00	> 24 h	–
CC(=O)NCCCC[C@H](NC(=O)[C@](C)(CCCCN)NC(=O)[C@H](Cc1ccc2ccccc2c1)NC(=O)[C@H](Cc1ccc(OCCN)cc1)NC(=O)[C@H]1NC(=O)[C@H](CCCNC(N)=O)NC(=O)[C@H](Cc2c[nH]c3c(C)cccc23)NC(=O)[C@H]([C@@H](C)O)NC(=O)[C@H](CC(N)=O)NC(=O)[C@@H](NC(C)=O)C(C)(C)SSC1(C)C)C(=O)N[C@@H](CC(N)=O)C(=O)N[C@H](C(N)=O)[C@@H](C)O [compound 262] (Ac-[Pen]NT[Trp(7-Me)][Cit][Pen][AEF][2Nal][αMeK]K(Ac)NT-NH2; disulfide 1-6)	3 h	15 h	8.00 to 9.00	> 24 h	–
CC(=O)NCCCC[C@H](NC(=O)C1(NC(=O)[C@H](Cc2ccc3ccccc3c2)NC(=O)[C@H](Cc2ccc(OCCN)cc2)NC(=O)[C@H]2NC(=O)[C@H](CCC(N)=O)NC(=O)[C@H](Cc3c[nH]c4c(C)cccc34)NC(=O)[C@H]([C@@H](C)O)NC(=O)[C@H](CC(N)=O)NC(=O)[C@@H](NC(C)=O)C(C)(C)SSC2(C)C)CCC1)C(=O)N[C@@H](CC(N)=O)C(=O)NCCC(N)=O [compound 277]	5 h	–	> 9.00	6 h	–
CC(=O)NCCCC[C@H](NC(=O)[C@](C)(CC(C)C)NC(=O)[C@H](Cc1ccc2ccccc2c1)NC(=O)[C@H](Cc1ccc(OCCN)cc1)NC(=O)[C@H]1NC(=O)[C@H](CCC(N)=O)NC(=O)[C@H](Cc2c[nH]c3c(C)cccc23)NC(=O)[C@H]([C@@H](C)O)NC(=O)[C@H](CC(N)=O)NC(=O)[C@@H](NC(C)=O)C(C)(C)SSC1(C)C)C(=O)N[C@H](Cc1ccccc1)C(=O)NCCC(N)=O [compound 213]	> 24 h	> 24 h	7.00 to 8.00	< 0.3 h	–
CC(=O)NCCCC[C@@H]1NC(=O)[C@H](Cc2c[nH]c3c(C)cccc23)NC(=O)[C@H]([C@@H](C)O)NC(=O)[C@H](CC(N)=O)NC(=O)[C@@H](NC(C)=O)C(C)(C)SSC(C)(C)[C@@H](C(=O)N[C@@H](Cc2ccc(OCCN)cc2)C(=O)N[C@@H](Cc2ccc3ccccc3c2)C(=O)N[C@@](C)(CCCCN)C(=O)N[C@@H](CCCCNC(C)=O)C(=O)N[C@@H](CC(N)=O)C(=O)N[C@H](CC(N)=O)Cc2ccccc2)NC1=O [compound 247]	> 24 h	> 24 h	–	> 24 h	8.00 to 9.00
CC(=O)NCCCC[C@H](NC(=O)[C@](C)(CC(C)C)NC(=O)[C@H](Cc1ccc2ccccc2c1)NC(=O)[C@H](Cc1ccc(OCCN)cc1)NC(=O)[C@H]1NC(=O)[C@H](CCC(N)=O)NC(=O)[C@H](Cc2c[nH]c3c(C)cccc23)NC(=O)[C@H]([C@@H](C)O)NC(=O)[C@H](CC(N)=O)NC(=O)[C@@H](NC(C)=O)C(C)(C)SSC1(C)C)C(=O)N[C@H](C)C(=O)NCCC(N)=O [compound 209]	> 24 h	> 24 h	8.00 to 9.00	1 h	–
CC(=O)NCCCC[C@@H]1NC(=O)[C@H](Cc2c[nH]c3c(C)cccc23)NC(=O)[C@H]([C@@H](C)O)NC(=O)[C@H](CC(N)=O)NC(=O)[C@@H](NC(C)=O)C(C)(C)SSC(C)(C)[C@@H](C(=O)N[C@@H](Cc2ccc(OCCN)cc2)C(=O)N[C@@H](Cc2ccc3ccccc3c2)C(=O)N[C@@](C)(CCCCN)C(=O)N[C@@H](CCCCNC(C)=O)C(=O)N[C@@H](CC(N)=O)C(=O)N[C@H](CC(C)C)C(N)=O)NC1=O [compound 245]	> 24 h	> 24 h	> 9.00	> 24 h	–
CC(=O)NCCCC[C@H](NC(=O)[C@](C)(CCCCN)NC(=O)[C@H](Cc1ccc2ccccc2c1)NC(=O)[C@H](Cc1ccc(OCCN)cc1)NC(=O)[C@H]1NC(=O)C(C)(C)NC(=O)[C@H](Cc2c[nH]c3c(C)cccc23)NC(=O)[C@H]([C@@H](C)O)NC(=O)[C@H](CC(N)=O)NC(=O)[C@@H](NC(C)=O)C(C)(C)SSC1(C)C)C(=O)N[C@@H](CC(N)=O)C(=O)NCCC(N)=O [compound 241] (Ac-[Pen]NT[Trp(7-Me)][Aib][Pen][AEF][2Nal][αMeK]K(Ac)N[βAla]-NH2; disulfide 1-6)	15 h	> 24 h	7.00 to 8.00	> 24 h	–
CC(=O)NCCCC[C@@H]1NC(=O)[C@H](Cc2c[nH]c3c(C(C)C)cccc23)NC(=O)[C@H]([C@@H](C)O)NC(=O)[C@H](CC(N)=O)NC(=O)[C@@H](NC(C)=O)C(C)(C)SSC(C)(C)[C@@H](C(=O)N[C@@H](Cc2ccc(OCCN)cc2)C(=O)N[C@@H](Cc2ccc3ccccc3c2)C(=O)N[C@@](C)(CCCCN)C(=O)N[C@@H](CCCCNC(C)=O)C(=O)N[C@@H](CC(N)=O)C(=O)N[C@H](CC(C)C)C(N)=O)NC1=O [compound 286] (Ac-[Pen]NT[X4]K(Ac)[Pen][AEF][2Nal][αMeK]K(Ac)N[dL]-NH2; disulfide 1-6)	> 24 h	> 24 h	8.00 to 9.00	> 24 h	–
CC(=O)NCCCC[C@@H]1NC(=O)[C@H](Cc2c[nH]c3c(C)cccc23)NC(=O)[C@H]([C@@H](C)O)NC(=O)[C@H](CC(N)=O)NC(=O)[C@@H](NC(C)=O)C(C)(C)SSC(C)(C)[C@@H](C(=O)N[C@@H](Cc2ccc(OCCN)cc2)C(=O)N[C@@H](Cc2ccc3ccccc3c2)C(=O)N[C@@](C)(CCCCN)C(=O)N[C@@H](CCCCNC(C)=O)C(=O)N[C@@H](CC(N)=O)C(=O)N(C)[C@@H](CCCNC(=N)N)C(N)=O)NC1=O [compound 246]	> 24 h	> 24 h	8.00 to 9.00	> 24 h	–
CC(=O)NCCCC[C@H](NC(=O)[C@](C)(CCCCN)NC(=O)[C@H](Cc1ccc2ccccc2c1)NC(=O)[C@H](Cc1ccc(OCCN)cc1)NC(=O)[C@H]1NC(=O)[C@H](CCC(N)=O)NC(=O)[C@H](Cc2c(C(C)(C)C)[nH]c3c(C(C)(C)C)cc(C(C)(C)C)cc23)NC(=O)[C@H]([C@@H](C)O)NC(=O)[C@H](CC(N)=O)NC(=O)[C@@H](NC(C)=O)C(C)(C)SSC1(C)C)C(=O)N[C@@H](CC(N)=O)C(=O)NCCC(N)=O [compound 233]	> 24 h	> 24 h	< 7.00	> 24 h	–
CC(=O)NCCCC[C@@H]1NC(=O)[C@H](Cc2c[nH]c3c(C)cccc23)NC(=O)[C@H]([C@@H](C)O)NC(=O)[C@H](CC(N)=O)NC(=O)[C@@H](NC(C)=O)C(C)(C)SSC(C)(C)[C@@H](C(=O)N[C@@H](Cc2ccc(OCCN)cc2)C(=O)N[C@@H](Cc2ccc3ccccc3c2)C(=O)N[C@@](C)(CCCCN)C(=O)N[C@@H](CCCCNC(C)=O)C(=O)NCCC(=O)NCCC(N)=O)NC1=O [compound 270]	> 24 h	> 24 h	8.00 to 9.00	> 24 h	–
CC(=O)NCCCC[C@H](NC(=O)[C@](C)(CCCCN)NC(=O)[C@H](Cc1ccc2ccccc2c1)NC(=O)[C@H](Cc1ccc(OCCN)cc1)NC(=O)[C@H]1NC(=O)[C@H](CCCNC(N)=O)NC(=O)[C@H](Cc2c[nH]c3c(C)cccc23)NC(=O)[C@H]([C@@H](C)O)NC(=O)[C@H](CC(N)=O)NC(=O)[C@@H](NC(C)=O)C(C)(C)SSC1(C)C)C(=O)N[C@@H](CC(N)=O)C(=O)N[C@@H](CO)C(N)=O [compound 260] (Ac-[Pen]NT[Trp(7-Me)][Cit][Pen][AEF][2Nal][αMeK]K(Ac)NS-NH2; disulfide 1-6)	3 h	15 h	> 9.00	> 24 h	–
